Reference: paper PMC8580252, “Parasitic nematode fatty acid- and retinol-binding proteins compromise host immunity by interfering with host lipid signaling pathways” (PLoS Pathogens, 2021)

Target: T1, Sc-FAR-2 (Steinernema carpocapsae, UniProt A0A4U5NI02)
T1 construct: gene L596_016036; mature protein (signal peptide removed), N-terminal His6 tag cut off with TEV protease, E. coli BL21-CodonPlus, about 20 kDa family
Experiment: fluorescence titration, one-site fit
Type: binding

T1 sequence (A0A4U5NI02 entry or part of it): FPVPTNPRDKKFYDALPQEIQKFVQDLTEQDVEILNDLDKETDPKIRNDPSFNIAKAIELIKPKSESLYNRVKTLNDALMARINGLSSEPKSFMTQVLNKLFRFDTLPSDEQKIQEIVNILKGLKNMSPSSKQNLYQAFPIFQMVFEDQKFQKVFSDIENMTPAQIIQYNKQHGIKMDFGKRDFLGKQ

SMILES: CN(C)c1cccc2c(S(=O)(=O)NCCCCCCCCCCC(=O)O)cccc12 [DAUDA]
- Kd: 21.8 µM
